How the values were obtained:
Assay in all cases: relative viability (nuclei count vs DMSO), 5 days (fraction); higher = more cells survive
[1] = test system: NCI-H1975
Method in brief: (§1)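 Relative viability is defined as nuclei in treated wells over nuclei in vehicle wells. Duplicate plates were run and medians reported. Lung cancer cell lines in 1536-well plates were dosed by pin tool one day after seeding, with one drug or with a fixed anchor-drug dose plus five library-drug doses (not always all listed) in √10 steps, and nuclei were counted after 5 days.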

[2] = test system: HCC-366
Method in brief: as §1

[3] = test system: SK-LU-1
Method in brief: as §1

[4] = test system: HARA
Method in brief: as §1

[5] = test system: NCI-H838
Method in brief: as §1

[6] = test system: NCI-H520
Method in brief: as §1

[7] = test system: LK-2
Method in brief: as §1

[8] = test system: NCI-H1792
Method in brief: as §1

[9] = test system: LOU-NH91
Method in brief: as §1

[10] = test system: NCI-H1650
Method in brief: as §1

[11] = test system: COR-L23
Method in brief: as §1

[12] = test system: NCI-H1734
Method in brief: as §1

[13] = test system: ChaGo-K-1
Method in brief: as §1

[14] = test system: NCI-H1355
Method in brief: as §1

[15] = test system: NCI-H2405
Method in brief: as §1

[16] = test system: LCLC-97TM1
Method in brief: as §1

[17] = test system: NCI-H460
Method in brief: as §1

[18] = test system: HCC-15
Method in brief: as §1

[19] = test system: NCI-H1993
Method in brief: as §1

[20] = test system: 201T
Method in brief: as §1

[21] = test system: NCI-H2085
Method in brief: as §1

[22] = test system: HCC-78
Method in brief: as §1

[23] = test system: NCI-H3122
Method in brief: as §1

## Oc1nc(-c2ccc(C(F)(F)F)cc2)nc2c1CSCC2 [XAV939] + CC(=O)Nc1cccc(-n2c(=O)n(C3CC3)c(=O)c3c(Nc4ccc(I)cc4F)n(C)c(=O)c(C)c32)c1 [Trametinib] (partner 0.02 µM)
[1]; first compound 0.08 µM
  relative viability: 0.359
[1]; first compound 0.253 µM
  relative viability: 0.296
[1]; first compound 0.8 µM
  relative viability: 0.35
[1]; first compound 2.53 µM
  relative viability: 0.275
[2]; first compound 0.08 µM
  relative viability: 0.307
[2]; first compound 0.253 µM
  relative viability: 0.28
[2]; first compound 0.8 µM
  relative viability: 0.327
[2]; first compound 2.53 µM
  relative viability: 0.259
[3]; first compound 0.08 µM
  relative viability: 0.537
[3]; first compound 0.253 µM
  relative viability: 0.44
[3]; first compound 0.8 µM
  relative viability: 0.543
[3]; first compound 2.53 µM
  relative viability: 0.582
[4]; first compound 0.08 µM
  relative viability: 0.925
[4]; first compound 0.253 µM
  relative viability: 0.531
[4]; first compound 0.8 µM
  relative viability: 0.892
[4]; first compound 2.53 µM
  relative viability: 0.506
[5]; first compound 0.08 µM
  relative viability: 0.595
[5]; first compound 0.253 µM
  relative viability: 0.441
[5]; first compound 0.8 µM
  relative viability: 0.392
[5]; first compound 2.53 µM
  relative viability: 0.39
[6]; first compound 0.08 µM
  relative viability: 0.687
[6]; first compound 0.8 µM
  relative viability: 0.501
[6]; first compound 2.53 µM
  relative viability: 0.427
[7]; first compound 0.08 µM
  relative viability: 0.788
[7]; first compound 0.253 µM
  relative viability: 0.792
[7]; first compound 0.8 µM
  relative viability: 0.703
[7]; first compound 2.53 µM
  relative viability: 0.535
[8]; first compound 0.08 µM
  relative viability: 0.492
[8]; first compound 0.253 µM
  relative viability: 0.473
[8]; first compound 0.8 µM
  relative viability: 0.448
[8]; first compound 2.53 µM
  relative viability: 0.391
[9]; first compound 0.08 µM
  relative viability: 0.811
[9]; first compound 0.253 µM
  relative viability: 0.769
[9]; first compound 0.8 µM
  relative viability: 0.745
[9]; first compound 2.53 µM
  relative viability: 0.742
[10]; first compound 0.08 µM
  relative viability: 0.568
[10]; first compound 0.253 µM
  relative viability: 0.511
[10]; first compound 0.8 µM
  relative viability: 0.591
[10]; first compound 2.53 µM
  relative viability: 0.303
[11]; first compound 0.08 µM
  relative viability: 0.651
[11]; first compound 0.253 µM
  relative viability: 0.597
[11]; first compound 0.8 µM
  relative viability: 0.543
[11]; first compound 2.53 µM
  relative viability: 0.531
[12]; first compound 0.08 µM
  relative viability: 0.77
[12]; first compound 0.253 µM
  relative viability: 0.616
[12]; first compound 0.8 µM
  relative viability: 0.593
[12]; first compound 2.53 µM
  relative viability: 0.647
[13]; first compound 0.08 µM
  relative viability: 0.977
[13]; first compound 0.253 µM
  relative viability: 0.82
[13]; first compound 0.8 µM
  relative viability: 0.907
[13]; first compound 2.53 µM
  relative viability: 0.802
[14]; first compound 0.08 µM
  relative viability: 0.367
[14]; first compound 0.253 µM
  relative viability: 0.336
[14]; first compound 0.8 µM
  relative viability: 0.38
[14]; first compound 2.53 µM
  relative viability: 0.291
[15]; first compound 0.08 µM
  relative viability: 0.685
[15]; first compound 0.253 µM
  relative viability: 0.591
[15]; first compound 0.8 µM
  relative viability: 0.607
[15]; first compound 2.53 µM
  relative viability: 0.412
[16]; first compound 0.08 µM
  relative viability: 0.213
[16]; first compound 0.253 µM
  relative viability: 0.199
[16]; first compound 2.53 µM
  relative viability: 0.161
[17]; first compound 0.08 µM
  relative viability: 0.164
[17]; first compound 0.253 µM
  relative viability: 0.0959
[17]; first compound 0.8 µM
  relative viability: 0.124
[17]; first compound 2.53 µM
  relative viability: 0.111
[18]; first compound 0.08 µM
  relative viability: 0.416
[18]; first compound 0.253 µM
  relative viability: 0.342
[18]; first compound 0.8 µM
  relative viability: 0.376
[18]; first compound 2.53 µM
  relative viability: 0.304
[19]; first compound 0.08 µM
  relative viability: 0.541
[19]; first compound 0.253 µM
  relative viability: 0.488
[19]; first compound 0.8 µM
  relative viability: 0.411
[19]; first compound 2.53 µM
  relative viability: 0.449
[20]; first compound 0.08 µM
  relative viability: 0.78
[20]; first compound 0.253 µM
  relative viability: 0.648
[20]; first compound 0.8 µM
  relative viability: 0.685
[20]; first compound 2.53 µM
  relative viability: 0.569
[21]; first compound 0.08 µM
  relative viability: 0.587
[21]; first compound 0.253 µM
  relative viability: 0.436
[21]; first compound 0.8 µM
  relative viability: 0.432
[21]; first compound 2.53 µM
  relative viability: 0.314
[22]; first compound 0.08 µM
  relative viability: 0.827
[22]; first compound 0.253 µM
  relative viability: 0.642
[22]; first compound 0.8 µM
  relative viability: 0.842
[22]; first compound 2.53 µM
  relative viability: 0.535
[23]; first compound 0.08 µM
  relative viability: 0.257
[23]; first compound 0.253 µM
  relative viability: 0.211
[23]; first compound 0.8 µM
  relative viability: 0.237
[23]; first compound 2.53 µM
  relative viability: 0.196

## Oc1nc(-c2ccc(C(F)(F)F)cc2)nc2c1CSCC2 [XAV939] + CC(=O)c1c(C)c2cnc(Nc3ccc(N4CCNCC4)cn3)nc2n(C2CCCC2)c1=O [Palbociclib] (partner 0.5 µM)
[1]; first compound 0.08 µM
  relative viability: 0.54
[1]; first compound 0.253 µM
  relative viability: 0.483
[1]; first compound 0.8 µM
  relative viability: 0.618
[1]; first compound 2.53 µM
  relative viability: 0.508
[2]; first compound 0.08 µM
  relative viability: 0.444
[2]; first compound 0.253 µM
  relative viability: 0.334
[2]; first compound 0.8 µM
  relative viability: 0.352
[2]; first compound 2.53 µM
  relative viability: 0.261
[3]; first compound 0.08 µM
  relative viability: 0.387
[3]; first compound 0.253 µM
  relative viability: 0.335
[3]; first compound 0.8 µM
  relative viability: 0.396
[3]; first compound 2.53 µM
  relative viability: 0.394
[4]; first compound 0.08 µM
  relative viability: 0.334
[4]; first compound 0.253 µM
  relative viability: 0.22
[4]; first compound 0.8 µM
  relative viability: 0.234
[4]; first compound 2.53 µM
  relative viability: 0.242
[5]; first compound 0.08 µM
  relative viability: 0.217
[5]; first compound 0.253 µM
  relative viability: 0.203
[5]; first compound 0.8 µM
  relative viability: 0.179
[5]; first compound 2.53 µM
  relative viability: 0.148
[6]; first compound 0.08 µM
  relative viability: 0.252
[6]; first compound 0.8 µM
  relative viability: 0.183
[6]; first compound 2.53 µM
  relative viability: 0.211
[7]; first compound 0.08 µM
  relative viability: 0.526
[7]; first compound 0.253 µM
  relative viability: 0.626
[7]; first compound 0.8 µM
  relative viability: 0.609
[7]; first compound 2.53 µM
  relative viability: 0.545
[8]; first compound 0.08 µM
  relative viability: 0.777
[8]; first compound 0.253 µM
  relative viability: 0.425
[8]; first compound 0.8 µM
  relative viability: 0.675
[8]; first compound 2.53 µM
  relative viability: 0.558
[9]; first compound 0.08 µM
  relative viability: 0.609
[9]; first compound 0.253 µM
  relative viability: 0.54
[9]; first compound 0.8 µM
  relative viability: 0.54
[9]; first compound 2.53 µM
  relative viability: 0.419
[10]; first compound 0.08 µM
  relative viability: 0.268
[10]; first compound 0.253 µM
  relative viability: 0.297
[10]; first compound 0.8 µM
  relative viability: 0.299
[10]; first compound 2.53 µM
  relative viability: 0.234
[11]; first compound 0.08 µM
  relative viability: 0.291
[11]; first compound 0.253 µM
  relative viability: 0.261
[11]; first compound 0.8 µM
  relative viability: 0.237
[11]; first compound 2.53 µM
  relative viability: 0.249
[12]; first compound 0.08 µM
  relative viability: 0.346
[12]; first compound 0.253 µM
  relative viability: 0.3
[12]; first compound 0.8 µM
  relative viability: 0.321
[12]; first compound 2.53 µM
  relative viability: 0.357
[13]; first compound 0.08 µM
  relative viability: 0.99
[13]; first compound 0.253 µM
  relative viability: 0.925
[13]; first compound 0.8 µM
  relative viability: 0.915
[13]; first compound 2.53 µM
  relative viability: 0.887
[14]; first compound 0.08 µM
  relative viability: 0.401
[14]; first compound 0.253 µM
  relative viability: 0.319
[14]; first compound 0.8 µM
  relative viability: 0.351
[14]; first compound 2.53 µM
  relative viability: 0.282
[15]; first compound 0.08 µM
  relative viability: 0.554
[15]; first compound 0.253 µM
  relative viability: 0.513
[15]; first compound 0.8 µM
  relative viability: 0.492
[15]; first compound 2.53 µM
  relative viability: 0.386
[16]; first compound 0.08 µM
  relative viability: 0.237
[16]; first compound 0.253 µM
  relative viability: 0.204
[16]; first compound 2.53 µM
  relative viability: 0.232
[17]; first compound 0.08 µM
  relative viability: 0.223
[17]; first compound 0.253 µM
  relative viability: 0.177
[17]; first compound 0.8 µM
  relative viability: 0.12
[17]; first compound 2.53 µM
  relative viability: 0.0927
[18]; first compound 0.08 µM
  relative viability: 0.709
[18]; first compound 0.253 µM
  relative viability: 0.68
[18]; first compound 0.8 µM
  relative viability: 0.721
[18]; first compound 2.53 µM
  relative viability: 0.705
[19]; first compound 0.08 µM
  relative viability: 0.617
[19]; first compound 0.253 µM
  relative viability: 0.474
[19]; first compound 0.8 µM
  relative viability: 0.469
[19]; first compound 2.53 µM
  relative viability: 0.5
[20]; first compound 0.08 µM
  relative viability: 0.362
[20]; first compound 0.253 µM
  relative viability: 0.315
[20]; first compound 0.8 µM
  relative viability: 0.338
[20]; first compound 2.53 µM
  relative viability: 0.3
[21]; first compound 0.08 µM
  relative viability: 0.489
[21]; first compound 0.253 µM
  relative viability: 0.435
[21]; first compound 0.8 µM
  relative viability: 0.491
[21]; first compound 2.53 µM
  relative viability: 0.451
[22]; first compound 0.08 µM
  relative viability: 0.479
[22]; first compound 0.253 µM
  relative viability: 0.382
[22]; first compound 0.8 µM
  relative viability: 0.466
[22]; first compound 2.53 µM
  relative viability: 0.527
[23]; first compound 0.08 µM
  relative viability: 0.2
[23]; first compound 0.253 µM
  relative viability: 0.196
[23]; first compound 0.8 µM
  relative viability: 0.184
[23]; first compound 2.53 µM
  relative viability: 0.153
